From patent US9650369B2, “Anti-migration and anti-invasion thiazole analogs for treatment of cellular proliferative disease” (XAVIER UNIVERSITY OF LOUISIANA, priority 2012, dated 2017) come the findings set out here.

Each structure is given as a SMILES string. pIC50: −log10 of the molar value.

A short description of series [1]: cytotoxicity of additional thiazole compounds (Table 3). The class given is cell-based. The following applies: cell line not given. The source says: (§1) The additional thiazole compounds were synthesized and tested for antimigration efficacy and cytotoxicity, with results shown in TABLE 3.
Series [2] is described as follows: antimigration efficacy of additional thiazole compounds (Table 3). The class given is cell-based. The settings on record: cell line not given; read-out: IC50 (anti-migration).
Description: as §1

Regarding `CCn1c(-c2ccc(C)cc2C)csc1=NC(=O)c1ccccc1` [Compound 5l, N-(4-(2,4-Dimethylphenyl)-3-ethylthiazol-2(3H)-ylidene)benzamide], the “Cytotoxicity (Survival at 1 μM)” value in series [1] is 141.8%. Besides, the pIC50 in series [2] was 5.25.

Turning to `CCCn1c(-c2ccc(C)cc2C)csc1=NC(=O)c1ccccc1` [Compound 5m, N-(4-(2,4-Dimethylphenyl)-3-propylthiazol-2(3H)-ylidene)benzamide], the “Cytotoxicity (Survival at 1 μM)” value in series [1] turned out to be 85.0%. Also, the pIC50 in series [2] was 6.75. As for `CCCCn1c(-c2ccc(C)cc2C)csc1=NC(=O)c1ccccc1` [Compound 5n, N-(3-Butyl-4-(2,4-dimethylphenyl)thiazol-2(3H)-ylidene)benzamide], the “Cytotoxicity (Survival at 1 μM)” value in series [1] stood at 70.4%. In addition, the pIC50 in series [2] was 6.48. The matching figures for `CCCCCCn1c(-c2ccc(C)cc2C)csc1=NC(=O)c1ccccc1` [Compound 5o, N-(4-(2,4-Dimethylphenyl)-3-hexylthiazol-2(3H)-ylidene)benzamide]: 90.0% and 7.06. Take `CCCCCCCCCCCCn1c(-c2ccc(C)cc2C)csc1=NC(=O)c1ccccc1` [Compound 5p, N-(4-(2,4-Dimethylphenyl)-3-dodecylthiazol-2(3H)-ylidene)benzamide]: the “Cytotoxicity (Survival at 1 μM)” value in series [1] is on record as 109.5%. Besides, in series [2], the pIC50 is 7.49.

Regarding `C=CCn1c(-c2ccc(C)cc2C)csc1=NC(=O)c1ccccc1` [Compound 5q, N-(3-Allyl-4-(2,4-dimethylphenyl)thiazol-2(3H)-ylidene)benzamide], the “Cytotoxicity (Survival at 1 μM)” value in series [1] came to 115.3%. In series [2], the pIC50 is 6.62. The matching figures for `C#CCn1c(-c2ccc(C)cc2C)csc1=NC(=O)c1ccccc1` [Compound 5r, N-(4-(2,4-Dimethylphenyl)-3-(prop-2-yn-1-yl)thiazol-2(3H)-ylidene)benzamide]: 70.2% and 4.96. For `C#CCN(C(=O)c1ccccc1)c1nc(-c2ccc(C)cc2C)cs1` [Compound 6, N-(4-(2,4-Dimethylphenyl)thiazol-2-yl)-N-(prop-2-yn-1-yl)benzamide], the “Cytotoxicity (Survival at 1 μM)” value in series [1] stood at 106.4%. For the molecule `CCN(C(=O)c1ccccc1)c1nc(-c2ccccc2)cs1` [Compound 7a, N-Ethyl-N-(4-phenylthiazol-2-yl)benzamide], the “Cytotoxicity (Survival at 1 μM)” value in series [1] is recorded as 68.5%. Also, in series [2], the pIC50 is 6.25. With `CCCn1c(-c2ccccc2)csc1=NC(=O)c1ccccc1` [Compound 7b, N-(4-Phenyl-3-propylthiazol-2(3H)-ylidene)benzamide], the “Cytotoxicity (Survival at 1 μM)” value in series [1] worked out at 100.0%. In addition, in series [2], the pIC50 was 6.36. `C=CCn1c(-c2ccccc2)csc1=NC(=O)c1ccccc1` [Compound 7c, N-(3-Allyl-4-phenylthiazol-2(3H)-ylidene)benzamide]: the “Cytotoxicity (Survival at 1 μM)” value in series [1] is 64.8%. Moreover, in series [2], the pIC50 is 7.61. The matching figures for `C#CCn1c(-c2ccccc2)csc1=NC(=O)c1ccccc1` [Compound 7d, N-(4-Phenyl-3-(prop-2-yn-1-yl)thiazol-2(3H)-ylidene)benzamide]: 63.0% and 7.19. As to `CCn1c(-c2ccccc2)csc1=NC(=O)c1ccccc1` [Compound 8a, N-(4-phenyl-3-ethylthiazol-2(3H)-ylidene)benzamide], the “Cytotoxicity (Survival at 1 μM)” value in series [1] was 128.9%. Further, the pIC50 in series [2] is 6.05.

`CCCN(C(=O)c1ccccc1)c1nc(-c2ccccc2)cs1` [Compound 8b, N-(4-Phenylthiazol-2-yl)-N-propylbenzamide]: in series [1], the “Cytotoxicity (Survival at 1 μM)” value worked out at 116.0%. The pIC50 in series [2] is 7.49. The matching figures for `Cc1ccc(-c2csc(NS(=O)(=O)c3ccccc3)n2)c(C)c1` [Compound 10, N-(4-(2,4-Dimethylphenyl)thiazol-2-yl)benzenesulfonamide]: 137.4% and 4.96.

As for `Cc1ccc(-c2csc(=NS(=O)(=O)c3ccccc3)n2C)c(C)c1` [Compound 11, N-(4-(2,4-Dimethylphenyl)-3-methylthiazol-2(3H)-ylidene)benzenesulfonamide], the “Cytotoxicity (Survival at 1 μM)” value in series [1] was 92.4%. Besides, the pIC50 in series [2] is 5.84. On to `Cc1ccc(-c2csc(N(C)S(=O)(=O)c3ccccc3)n2)c(C)c1` [Compound 12, N-(4-(2,4-Dimethylphenyl)thiazol-2-yl)-N-methylbenzenesulfonamide], for which the “Cytotoxicity (Survival at 1 μM)” value in series [1] is reported as 116.7%. For the same molecule, in series [2], the pIC50 is less than 4.60. On to `Cc1csc(NC(=O)c2ccccc2)n1` [Compound 14a, N-(4-Methylthiazol-2-yl)benzamide], for which the “Cytotoxicity (Survival at 1 μM)” value in series [1] is 103.1%. The pIC50 in series [2] was 4.92. Regarding `O=C(Nc1nc(-c2ccccc2Cl)cs1)c1ccccc1` [Compound 14b, N-(4-(2-Chlorophenyl)thiazol-2-yl)benzamide], the “Cytotoxicity (Survival at 1 μM)” value in series [1] turned out to be 102.4%. The pIC50 in series [2] was 4.82. As to `O=C(Nc1nc(-c2cccc(Br)c2)cs1)c1ccccc1` [Compound 14c, N-(4-(3-Bromophenyl)thiazol-2-yl)benzamide], the “Cytotoxicity (Survival at 1 μM)” value in series [1] turned out to be 78.0%. The pIC50 in series [2] was 5.00. The matching figures for `O=C(Nc1nc(-c2ccc(Br)cc2)cs1)c1ccccc1` [Compound 14d, N-(4-(4-Bromophenyl)thiazol-2-yl)benzamide]: 82.2% and 5.02.

As to `O=C(Nc1nc(-c2cccc(Cl)c2)cs1)c1ccccc1` [Compound 14e, N-(4-(3-Chlorophenyl)thiazol-2-yl)benzamide], the “Cytotoxicity (Survival at 1 μM)” value in series [1] is reported as 71.4%. For the same molecule, the pIC50 in series [2] is 6.91. The matching figures for `O=C(Nc1nc(-c2cc(C(F)(F)F)cc(C(F)(F)F)c2)cs1)c1ccccc1` [Compound 14f, N-(4-(3,5-Bis(trifluoromethyl)phenyl)thiazol-2-yl)benzamide]: 85.8% and 6.47. For `COc1cc(-c2csc(NC(=O)c3ccccc3)n2)cc(OC)c1OC` [Compound 14g, N-(4-(3,4,5-Trimethoxyphenyl)thiazol-2-yl)benzamide], the “Cytotoxicity (Survival at 1 μM)” value in series [1] came out at 95.0%. For the same molecule, in series [2], the pIC50 was less than 4.30. With `Cc1sc(NC(=O)c2ccccc2)nc1-c1ccccc1` [Compound 14h, N-(5-Methyl-4-phenylthiazol-2-yl)benzamide], the “Cytotoxicity (Survival at 1 μM)” value in series [1] is 99.0%. Further, in series [2], the pIC50 was less than 4.60. Take `Cc1sc(NC(=O)c2ccccc2)nc1-c1ccc(F)cc1` [Compound 14i, N-(4-(4-Fluorophenyl)-5-methylthiazol-2-yl)benzamide]: the “Cytotoxicity (Survival at 1 μM)” value in series [1] stood at 53.7%. Besides, the pIC50 in series [2] was 5.04.

In the case of `Cc1ccc(-c2cnc(NC(=O)c3ccccc3)s2)cc1` [Compound 14j, N-(5-(p-Tolyl)thiazol-2-yl)benzamide], in series [1], the “Cytotoxicity (Survival at 1 μM)” value came to 55.6%. Further, the pIC50 in series [2] is 6.51. The matching figures for `COc1ccc(C(=O)Nc2nc(-c3cc(OC)c(OC)c(OC)c3)cs2)cc1` [Compound 14k, 4-Methoxy-N-(4-(3,4,5-trimethoxyphenyl)thiazol-2-yl)benzamide]: 93.8% and less than 4.60. The matching figures for `COc1cc(-c2csc(NC(=O)c3ccc(Cl)cc3)n2)cc(OC)c1OC` [Compound 14l, 4-Chloro-N-(4-(3,4,5-trimethoxyphenyl)thiazol-2-yl)benzamide]: 85.6% and less than 4.60. `COc1ccc(C(=O)Nc2nc(-c3cc(OC)c(OC)c(OC)c3)cs2)cc1OC` [Compound 14m, 3,4-Dimethoxy-N-(4-(3,4,5-trimethoxyphenyl)thiazol-2-yl)benzamide]: the “Cytotoxicity (Survival at 1 μM)” value in series [1] is on record as 87.3%. The pIC50 in series [2] was less than 4.60. The matching figures for `COc1ccc(C(=O)Nc2nc(-c3cc(OC)c(OC)c(OC)c3)cs2)c(OC)c1` [Compound 14n, 2,4-Dimethoxy-N-(4-(3,4,5-trimethoxyphenyl)thiazol-2-yl)benzamide]: 93.8% and less than 4.30.

Turning to `COc1cc(C(=O)Nc2nc(-c3cc(OC)c(OC)c(OC)c3)cs2)cc(OC)c1OC` [Compound 14o, 3,4,5-Trimethoxy-N-(4-(3,4,5-trimethoxyphenyl)thiazol-2-yl)benzamide], the “Cytotoxicity (Survival at 1 μM)” value in series [1] is 77.6%. Further, in series [2], the pIC50 is 5.99.

With `COc1cc(-c2csc(NC(=O)c3cccc(OC)c3OC)n2)cc(OC)c1OC` [Compound 14p, 2,3-Dimethoxy-N-(4-(3,4,5-trimethoxyphenyl)thiazol-2-yl)benzamide], the “Cytotoxicity (Survival at 1 μM)” value in series [1] worked out at 90.1%. The pIC50 in series [2] was 4.82. The matching figures for `COc1ccccc1C(=O)Nc1nc(-c2cc(OC)c(OC)c(OC)c2)cs1` [Compound 14q, 2-Methoxy-N-(4-(3,4,5-trimethoxyphenyl)thiazol-2-yl)benzamide]: 103.7% and 5.07. The matching figures for `COc1cccc(C(=O)Nc2nc(-c3cc(OC)c(OC)c(OC)c3)cs2)c1` [Compound 14r, 3-Methoxy-N-(4-(3,4,5-trimethoxyphenyl)thiazol-2-yl)benzamide]: 92.6% and 4.85. The matching figures for `Cc1csc(=NC(=O)c2ccccc2)n1C` [Compound 15a, N-(3,4-Dimethylthiazol-2(3H)-ylidene)benzamide]: 102.6% and 4.82. For `Cn1c(-c2ccccc2Cl)csc1=NC(=O)c1ccccc1` [Compound 15b, N-(4-(2-Chlorophenyl)-3-methylthiazol-2(3H)-ylidene)benzamide], the “Cytotoxicity (Survival at 1 μM)” value in series [1] is recorded as 72.2%. Further, the pIC50 in series [2] is 6.57.

Consider `Cn1c(-c2cccc(Br)c2)csc1=NC(=O)c1ccccc1` [Compound 15c, N-(4-(3-Bromophenyl)-3-methylthiazol-2(3H)-ylidene)benzamide], for which the “Cytotoxicity (Survival at 1 μM)” value in series [1] turned out to be 94.4%. The pIC50 in series [2] was 6.52. Take `Cn1c(-c2ccc(Br)cc2)csc1=NC(=O)c1ccccc1` [Compound 15d, N-(4-(4-Bromophenyl)-3-methylthiazol-2(3H)-ylidene)benzamide]: the “Cytotoxicity (Survival at 1 μM)” value in series [1] was 59.3%. The pIC50 in series [2] was 6.90.
